Measurements: PMC5585923, “Isolation and characterization of the compounds responsible for the antimutagenic activity of Combretum microphyllum (Combretaceae) leaf extracts” (BMC Complementary and Alternative Medicine, 2017)
≈ marks a conversion by molar mass, not a printed value. Read-outs that look alike come from different tables or passages of the source.

Columns and labels:
[1] = system: Salmonella typhimurium TA98; assay: Ames test, mutagenicity, TA98
[2] = system: Salmonella typhimurium TA100; assay: Ames test, mutagenicity, TA100
[3] = DPPH free radical scavenging (antioxidant) assay; conditions: tested 100 to 0.048 μg/ml
Description: The DPPH free radical scavenging spectrophotometric method described by Mensor et al. and modified by Aderogba et al. was used to evaluate the quantitative antioxidant activity. Reactions were carried out in 96-well microtitre plates and each of the isolated compounds was tested at varying concentrations ranging from 100 to 0.048 μg/ml. Blank solutions were prepared with methanol only while the negative control was DPPH solution (20 μl plus 50 μl methanol). Test sample solution contained compounds serially diluted in methanol. Methanol served as a blank for the microplate reader and the decrease in absorbance was measured at 515 nm. Percentage antioxidant activity (AA%) values were calculated from the absorbance values using the formula: AA%=100−Abssample–Absblank×100/Abscontrol
(Abs sample is the absorbance of the sample, Abs blank is the absorbance of the blank and Abs control is the absorbance of the control). L-ascorbic acid (vitamin C) was used as a positive control (antioxidant agent). The EC50 value, defined as the concentration of the sample leading to 50% reduction of the initial DPPH concentration, was calculated from the separate linear regression of plots of the mean percentage of the antioxidant activity against concentration of the test extracts obtained from the three replicate assays. The results are expressed as EC50 values obtained from the regression plots.

MTT cytotoxicity assay = assay type: cell-based; conditions: human; for viability at 2 days, 200 μg/ml: 200 μg/ml (highest concentration tested), read-out: percentage cell viability
Description: (§1) Briefly, the cells were maintained in minimal essential medium supplemented with 10% foetal calf serum and sodium pyruvate. Cell suspensions were prepared from confluent monolayer cultures and plated at a density of 5 × 10^4 cells/ml and a total of 200 μl of the cell suspension was plated in a 96-well culture plate. After incubation at 37 °C in a 5% CO2 incubator, the cells were treated with different concentrations of the isolated compounds ranging from 10 to 200 μg/ml and incubated for 2 days. Doxorubicin chloride was used as the positive control. The wells were washed with PBS and fresh medium (200 μl) was then added to the wells. MTT (Sigma) dissolved in PBS (30 μl) was added to each well and incubated for 4 h at 37 °C. The medium was removed and MTT formazan crystals were dissolved in 50 μl DMSO. The amount of MTT reduction was measured immediately by detecting the absorbance using a microplate reader (BioTek Synergy, Analytical and Diagnostic Products, South Africa) at a wavelength of 570 nm. The percentage of cell viability was calculated using the formula below: %cell viability=Mean Absorbance of sample/Mean Absorbance of control×100
(§2) The intensity of the MTT formazan produced by living metabolically active cells is directly proportional to the number of live cells present (Mosmann, [14]).

[4] = system: human hepatocellular carcinoma (C3A) cells; assay: MTT cytotoxicity assay; assay type: cell-based; conditions: Homo sapiens; C3A cells, 200 μg/ml; read-out: inhibition of cell growth
Description: as §1, §2

[5] = parameters: method as in earlier work; conditions: 100 μg/ml, cell-free system, ref 22 Manna et al.; cited from earlier work
[6] = system: Ehrlich ascites carcinoma (EAC) cell line; parameters: method as in Ramesh and colleagues (2012); conditions: EAC cells, 100 μg/ml, ref Ramesh and colleagues (2012); cited from earlier work
[7] = system: Dalton's lymphoma (DLA) cell line; parameters: method as in Ramesh and colleagues (2012); conditions: DLA cells, 100 μg/ml, ref Ramesh and colleagues (2012); cited from earlier work
[8] = system: Salmonella typhimurium TA102; assay: Ames test, antimutagenicity against MMC, TA102; conditions: for antimutagenic activity: TA102, against MMC
Description: (§3) Briefly, 100 μl of bacterial stock were incubated in 20 ml of Oxoid Nutrient broth for 16 h at 37 °C on a rotary shaker. Of this overnight culture, 0.1 ml was added to 2.0 ml of top agar (containing histidine-biotin) together with 0.1 ml test solution and 0.5 ml phosphate buffer. […] To determine antimutagenicity, the test solution contained 50 μl test sample and 50 μl positive control). The top agar mixture was poured over the surface of a minimal agar plate and incubated for 48 h at 37 °C. After incubation the numbers of revertant colonies (mutants) in each plate were counted.
(§4) Where T is the number of revertants per plate in the presence of mutagen and the test solution and M is the number of revertants per plate in the positive control. All cultures were prepared in triplicate (except for the solvent control where five replicates were used). Absence of toxicity was confirmed when a background layer of bacterial growth, which should normally be present was observed.

[9] = system: Salmonella typhimurium TA98; assay: Ames test, antimutagenicity against 4-NQO, TA98; conditions: for antimutagenic activity: TA98, against 4-NQO
Description: as §3, §4

[10] = system: Salmonella typhimurium TA100; assay: Ames test, antimutagenicity against 4-NQO, TA100; conditions: for antimutagenic activity: TA100, against 4-NQO
Description: as §3, §4

[11] = C3A hepatocellular carcinoma cells, C3A cells, MTT, 2 days, 10 to 200 μg/ml, read-out: LC50

Structure (SMILES)	Mean number of revertant colonies per plate (±SD) ([1]; TA98, 5 μg/ml)	Mean number of revertant colonies per plate (±SD) ([1]; TA98, 50 μg/ml)	Mean number of revertant colonies per plate (±SD) ([1]; TA98, 500 μg/ml)	Mean number of revertant colonies per plate (±SD) ([2]; TA100, 5 μg/ml)	Mean number of revertant colonies per plate (±SD) ([2]; TA100, 50 μg/ml)	Mean number of revertant colonies per plate (±SD) ([2]; TA100, 500 μg/ml)	EC50, DPPH free radical scavenging [3] [µg/mL]	CC50 at 2 days (MTT cytotoxicity assay; [11]) [µg/mL]	antimutagenic activity [8]	antimutagenic activity [9]	antimutagenic activity [10]	CC50 at 2 days (MTT cytotoxicity assay)	further results
CC1(C)CC[C@]2(C(=O)O)CC[C@]3(C)C(=CC[C@@H]4[C@@]5(C)C[C@@H](O)[C@H](O)[C@@](C)(CO)[C@@H]5CC[C@]43C)[C@@H]2C1 [Arjunolic acid, arjunolic acid]	26.67 ± 1.15	28.33 ± 3.78	33.00 ± 2.65	107.33 ± 1.15	104.33 ± 2.52	109.00 ± 8.72	6.25 ± 0.29 (≈ 12.8 µM)	106 ± 5.11	most active	most active	most active		inhibition at 200 µg/mL [4]: 66%; DPPH free radical scavenging activity [5]: up to 80%; inhibition of cell growth [6]: up to 70%; inhibition of cell growth [7]: up to 70%; inhibition at 500 µg/mL ([8]; Salmonella enterica, TYPHIMURIUM, read-out: percentage antimutagenicity (inhibition of mutagenic effect of MMC), TA102, 500 μg/ml (highest concentration tested), MMC 1 μg/ml): 44 ± 0.18%; percentage antimutagenicity (inhibition of mutagenic effect of MMC) ([8]; TA102, 500 μg/ml (highest concentration tested), MMC 1 μg/ml): ≤ 43.78 ± 0.18%; inhibition at 500 µg/mL ([9]; Salmonella enterica, TYPHIMURIUM, read-out: percentage antimutagenicity (inhibition of mutagenic effect of 4-NQO), TA98, 500 μg/ml (highest concentration tested), 4-NQO 2 μg/ml): 42 ± 9.6%; inhibition at 500 µg/mL ([10]; Salmonella enterica, TYPHIMURIUM, read-out: percentage antimutagenicity (inhibition of mutagenic effect of 4-NQO), TA100, 500 μg/ml (highest concentration tested), 4-NQO 1 μg/ml): 36 ± 1.5%; percentage antimutagenicity (inhibition of mutagenic effect of 4-NQO) ([10]; TA100, 500 μg/ml (highest concentration tested), 4-NQO 1 μg/ml): ≤ 35.84 ± 1.45%
O=C1O[C@H]([C@@H](O)CO)C(O)=C1O [Ascorbic acid, L-ascorbic acid, reference compound]							0.51 ± 0.08 (≈ 2.9 µM)						
COc1cccc2c1C(=O)c1c(O)c3c(c(O)c1C2=O)C[C@@](O)(C(=O)CO)C[C@@H]3O[C@H]1C[C@H](N)[C@H](O)[C@H](C)O1 [Doxorubicin, Doxorubicin chloride, reference compound]												640 ± 32 nM	
CCCCCCCCCCCCCCCCCCCC(=O)O [Eicosanoic acid, eicosanoic acid]	28.67 ± 5.51	29.33 ± 4.04	27.77 ± 1.53	112.33 ± 2.89	102.67 ± 4.73	108.67 ± 5.03	>100					> 200 µg/mL	viability at 2 days, 200 μg/ml (MTT cytotoxicity assay; C3A cells): 50.1 ± 6.21%
CCCCCCCCCCCCCCCCCCCCCCCCO [n-Tetracosanol, n-tetracosanol]	23.67 ± 4.51	35.67 ± 9.71	30.00 ± 7.81	127.00 ± 7.21	121.33 ± 2.52	125.00 ± 8.18	>100	> 200	least active compound	least active compound	least active compound		viability at 2 days, 200 μg/ml (MTT cytotoxicity assay; C3A hepatocellular carcinoma cells, C3A cells): 59.7 ± 7.23%
